How the values were obtained:
[1] = Reaction of aminooxy-CD with 4-thiouracil followed by UV spectra; details: 1 mM 4-thiouracil, 0.1 M compound, 20° C., neutral pH (7.0), 1 mm path
Procedure: FIG. 1a. Time course of the UV spectra (optical path length 1 mm) of a reaction mixture containing 1 mM 4-thiouracil in 100 mM 4-aminooxy-2-butenyl-beta-cyclodextrin (I; see Example I.2) at pH 7.0. Incubation at 20° C. is indicated as hours.
FIG. 1b. Time course of the UV spectra (optical path length 1 mm) of a reaction mixture containing 1 mM 4-thiouracil and 100 mM 1-aminooxybutane at 20° C. at pH 7.00. Incubation time (hours) is indicated.
A 1 mM solution of 4-thiouracil (Lacheama, Brno, Czechoslovakia) was incubated at 20° C. within a 0.1 M solution of 4-aminooxy-2-butenyl-β-CD (I) at neutral pH. The UV-spectra were recorded at certain time intervals using cuvettes of 1 mm optical path length (FIG. 1a). This reaction was compared with the reaction of 4-thiouracil with 1-aminooxybutane under the same reaction conditions (FIG. 1b).

[2] = Reaction of aminooxy-CD with 6-mercaptopurine riboside followed by UV spectra; details: 1 mM 6-mercaptopurine riboside, 0.1 M compound, 20° C., pH 7.00, 1 mm path
Procedure: FIG. 2a. Time course of the UV spectra (optical path length 1 mm) of a reaction mixture containing 1 mM 6-mercaptopurineriboside with 100 mM 4-aminooxy-2-butenyl-beta-cyclodextrin (see Example I.2). Incubation time (hours) is indicated.
FIG. 2b. Time course of the UV spectra (optical path length b 1 mm) of a reaction mixture containing 1 mM 6-mercaptopurineriboside with 100 mM 1-aminooxybutane at pH 7.00. Incubation time (hours) is indicated.
A 1 mM solution of 6-mercaptopurine riboside (Sigma Chem. Co., USA) was incubated at 20° C. within 0.1 M of 4-aminooxy-2-butenyl-β-CD (I).

4-aminooxy-2-butenyl-beta-cyclodextrin
velocity of reaction with 4-thiouracil compared with 1-aminooxybutane [1]: significantly higher velocity of reaction
reaction rate with 6-mercaptopurine riboside compared with 1-aminooxybutane [2]: drastically higher reaction rates

Source: US6998479B1, “Derivatives of cyclodextrins” (priority 1998, dated 2006)
